In patent US11191775B2, “PAPD5 and PAPD7 inhibitors for treating a hepatitis B infection” (HOFFMANN-LA ROCHE INC., priority 2016, dated 2021):
Where two headings read alike, the source gives them in different places.

Key:
HBV = assay: HBsAg and HBeAg secretion in HepG2.2.15 cells; type: cell-based; settings: Hepatitis B virus, 72 h, incubated for 3 days, supernatant, CLIA ELISA
Procedure: To evaluate the impact on HBV antigen expression and secretion, supernatants were collected on Day 11. HBV HBsAg and HBeAg levels were measured using CLIA ELISA Kits (Autobio Diagnostic #CL0310-2, #CL0312-2), according to the manufacturer's protocol. Briefly, 25 μL of supernatant per well were transferred to the respective antibody coated microtiter plate and 25 μL of enzyme conjugate reagent were added. The plate was incubated for 60 min on a shaker at room temperature before the wells were washed five times with washing buffer using an automatic washer. 25 μL of substrate A and B were added to each well. The plates were incubated on a shaker for 10 min at room temperature before luminescence was measured using an Envision luminescence reader (Perkin Elmer).
The potency of DHQ and THP and their variants against HBV infection were measured in HepG2.2.15 cells using HBsAg and HBeAg as read out.
HepG2.2.15 cells (Sells et al 1987 Proc Natl Acad Sci USA 84, 1005-1009) were cultured in 96 well plates (15.000 cells/well in 100 uL) in DMEM+GluTaMax-1 (GiBCO Cat. NO. 10569), 1% Pen Strep (Gibco Cat. No. 15140), 10% FBS (Clontech Cat. No. 631106), Geneticin […] (Invitrogen 10131035). The compunds were tested using three-fold serial dilutions in DMSO with a top concentration of 100 μM and 9 serial dilutions. Each compound was tested in quadricate. The cells were incubated for 3 days, supernatents were collected and HBsAg and HBeAg were measured as described in the Materials and Methods section.

hepatitis C virus (HCV) = assay: Activity against hepatitis C virus (data not shown)
[1] = test system: PAPD5 variant 1 and variant 2 prey fragments; assay: Y3H ULTImate YChemH 1-by-1 validation, prey fragments; type: binding, human; settings: PAPD5 variant 1 and 2 fragments; tested at 5, 10 and 20 μM; FIG. 1
Procedure: (§1) In this validation step each one identified fragment prey and one chemical probe (HBX129653, HBX129654) is tested in a 1-by-1 experiment. The plasmids from 3 selected preys from the screening library were extracted from the yeast cells, amplified in E. coli and re-transformed into YHGX13 yeast cells. For each interaction, DO1, 1/10, 1/100 and 1/1000 of the diploid yeast culture expressing both hook and prey constructs were spotted on a selective medium without tryptophan, leucine and histidine and supplemented with the chemical probe and FK506. Interactions were tested in duplicate. One plate was used per chemical compound and concentration (DMSO, 5, 10 and 20 μM of HBX129653, 5, 10 and 20 μM of HBX129654, 5 μM of HBX24786 Trimethoprim (TMP) and 5 μM of HBX129634 (TMP-PEG5-OH)). Plates were incubated at 30° C. for 3 days.
(§2) In a first validation step three fragments identified in the first screen were selected for the 1-by-1 validation assay (as described in the Materials and Method section) and tested at three different concentrations (5, 10 and 20 μM) (Table 7).

PAPD7 prey fragment = assay: as above; type: binding, human; settings: tested at 5, 10 and 20 μM, FIG. 1
Procedure: as §1, §2

PAPD7 var1 full length = target: T1, PAPD7 var1 full length (Homo sapiens, UniProt Q5XG87); assay: Y3H ULTImate YChemH 1-by-1 validation, full length proteins; type: binding; settings: tested at 5, 10 and 20 μM, FIG. 2
T1 construct: PAPD7 var1 full length; host or cells: diploid yeast from YHGX13 (prey) x YPT6AT (DHFR hook)
Source text: (§3) The coding sequence of full-length PAPD5var1 (NM_001040284.2) and PAPD7varX1 (XM_005248234.2) were reconstituted from an N-terminal codon-optimized gene fragment (to remove high GC content) and commercially available clones of the C-terminal regions of the proteins and cloned in frame with the Gal4 Activation Domain (AD) into plasmid pP7 (AD-Prey), derived from the original pGADGH (Bartel et al., 1993 in Cellular interactions in development: A practical approach. ed. Hartley, D. A., Oxford University Press, Oxford, pp. 153-179). The constructs were checked by sequencing the entire inserts. For each prey, a mini-mating was carried out between YHGX13 (Y187 ade2-101::IoxP-kanMX-IoxP, matα) transformed with the prey plasmids and YPT6AT yeast cells (mata) transformed with the DHFR hook (Dihydrofolate reductase) to produce a diploid yeast culture. For each interaction, DO1, 1/10, 1/100 and 1/1000 of the diploid yeast culture expressing both hook and prey constructs were spotted on a selective medium without tryptophan, leucine and histidine and supplemented with the chemical probe and FK506. Interactions were tested in duplicate. One plate was used per chemical compound and concentration (DMSO, 5, 10 and 20 μM of HBX129653, 5, 10 and 20 μM of HBX129654, 5 μM of HBX24786 Trimethoprim (TMP) and 5 μM of HBX129634 (TMP-PEG5-OH)). Plates were incubated at 30° C. for 3 days.
(§4) In a second validation step, full length proteins for PAPD5 and PAPD7 were synthesized and used for 1-by-1 validation (as described in the Materials and Method section) with DHQ and THP (Table 8).

PAPD5 var1 full length = target: T2, PAPD5 var1 full length (Homo sapiens, UniProt Q8NDF8); assay: as above; type: binding; settings: tested at 5, 10 and 20 μM, FIG. 2
T2 construct: PAPD5 var1 full length; host or cells: diploid yeast from YHGX13 (prey) x YPT6AT (DHFR hook)
Source text: as §3, §4

[2] = target: T3, PAPD7 varX1 (experimental fragment and full length) (Homo sapiens, UniProt Q5XG87); assay: Y3H ULTImate YChemH competition with free compound; type: binding; settings: probe HBX129653 or HBX129654 1 μM, free compound 0-20 μM, FIG. 3-6
T3 construct: PAPD7 var1 full length; host or cells: diploid yeast from YHGX13 (prey) x YPT6AT (DHFR hook)
Procedure: (§5) The competition assays were performed on selective medium at 8 concentrations of the free compound (0, 0.25, 0.5, 1, 2, 5, 10 and 20 μM) and a consistent concentration for the tagged Y3H-compound (1 μM).

[3] = target: T4, PAPD5 var1 (experimental fragment and full length) (Homo sapiens, UniProt Q8NDF8); assay: Y3H ULTImate YChemH competition with free compound; type: binding; settings: probe HBX129653 or HBX129654 1 μM, free compound 0-20 μM, FIG. 3-6
T4 construct: PAPD5 var1 full length; host or cells: diploid yeast from YHGX13 (prey) x YPT6AT (DHFR hook)
Procedure: as §5

PAPD5 variant 1 = assay: Y3H ULTImate YChemH screen; type: binding; design: key: confidence score of A (scale A-D); settings: prey PAPD5 variant 1; cDNA Human placenta library
Procedure: (§6) The two compounds were provided by Roche to HYBRIGENICS SERVICES SAS and tested for permeability and toxicity. Compounds were then screened against HYBRIGENICS's cDNA Human placenta library (PLA). The screens were carried out according to the optimized cell-to-cell mating protocol developed for Hybrigenics ULTImate Y2H™ using at different compound concentration (Table 2).
(§7) Clones obtained from the screen were picked in 96-well format and clones positive for growth under selective conditions (HIS+) were evaluated in a dependency assay using spot assays. Only clones that were able to grow on selective medium in the presence of the tagged compound were being picked up, processed (cell lysis, PCR, gene sequencing) and mapped for protein alignment using Blast analysis.
(§8) Both proteins PAPD5 (variant 1: NP_001035374; variant 2: NP_001035375) and PAPD7 (XP_005248291) were identified by a numerous number of fragments in the Y3H screen for both compounds (DHQ and THP) as described in the Materials and Method section. The identified proteins were ranked with a confidence score of A (scale A-D) by HYBRIGENICS (Table 6).

PAPD7 = assay: Y3H ULTImate YChemH screen; type: binding; design: key: confidence score of A (scale A-D); settings: prey PAPD7; cDNA Human placenta library
Procedure: as §6, §7, §8

PAPD5 variant 2 = assay: Y3H ULTImate YChemH screen; type: binding; design: key: confidence score of A (scale A-D); settings: prey PAPD5 variant 2; cDNA Human placenta library
Procedure: as §6, §7, §8

T3 sequence (Q5XG87 whole entry, the tested form may be a part): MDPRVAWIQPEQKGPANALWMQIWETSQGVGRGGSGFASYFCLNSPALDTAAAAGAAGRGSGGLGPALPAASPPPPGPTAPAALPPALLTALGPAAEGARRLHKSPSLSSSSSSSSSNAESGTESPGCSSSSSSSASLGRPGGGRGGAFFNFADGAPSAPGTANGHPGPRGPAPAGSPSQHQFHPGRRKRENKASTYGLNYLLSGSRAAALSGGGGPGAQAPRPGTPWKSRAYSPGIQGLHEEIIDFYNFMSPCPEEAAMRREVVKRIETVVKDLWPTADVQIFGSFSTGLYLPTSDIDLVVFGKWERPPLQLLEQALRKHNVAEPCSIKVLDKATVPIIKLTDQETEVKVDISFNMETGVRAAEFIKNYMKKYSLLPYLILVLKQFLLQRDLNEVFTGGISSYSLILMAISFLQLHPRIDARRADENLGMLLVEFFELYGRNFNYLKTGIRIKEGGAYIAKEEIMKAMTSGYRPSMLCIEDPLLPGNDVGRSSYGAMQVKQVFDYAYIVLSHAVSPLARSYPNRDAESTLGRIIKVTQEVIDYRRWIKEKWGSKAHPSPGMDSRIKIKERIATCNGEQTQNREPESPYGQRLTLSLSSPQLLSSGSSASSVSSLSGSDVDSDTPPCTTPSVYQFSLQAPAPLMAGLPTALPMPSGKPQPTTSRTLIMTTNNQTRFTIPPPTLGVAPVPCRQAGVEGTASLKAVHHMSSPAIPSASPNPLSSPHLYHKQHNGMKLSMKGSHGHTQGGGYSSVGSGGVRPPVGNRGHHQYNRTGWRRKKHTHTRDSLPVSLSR
T4 sequence (Q8NDF8 1-698 isoform Q8NDF8-5): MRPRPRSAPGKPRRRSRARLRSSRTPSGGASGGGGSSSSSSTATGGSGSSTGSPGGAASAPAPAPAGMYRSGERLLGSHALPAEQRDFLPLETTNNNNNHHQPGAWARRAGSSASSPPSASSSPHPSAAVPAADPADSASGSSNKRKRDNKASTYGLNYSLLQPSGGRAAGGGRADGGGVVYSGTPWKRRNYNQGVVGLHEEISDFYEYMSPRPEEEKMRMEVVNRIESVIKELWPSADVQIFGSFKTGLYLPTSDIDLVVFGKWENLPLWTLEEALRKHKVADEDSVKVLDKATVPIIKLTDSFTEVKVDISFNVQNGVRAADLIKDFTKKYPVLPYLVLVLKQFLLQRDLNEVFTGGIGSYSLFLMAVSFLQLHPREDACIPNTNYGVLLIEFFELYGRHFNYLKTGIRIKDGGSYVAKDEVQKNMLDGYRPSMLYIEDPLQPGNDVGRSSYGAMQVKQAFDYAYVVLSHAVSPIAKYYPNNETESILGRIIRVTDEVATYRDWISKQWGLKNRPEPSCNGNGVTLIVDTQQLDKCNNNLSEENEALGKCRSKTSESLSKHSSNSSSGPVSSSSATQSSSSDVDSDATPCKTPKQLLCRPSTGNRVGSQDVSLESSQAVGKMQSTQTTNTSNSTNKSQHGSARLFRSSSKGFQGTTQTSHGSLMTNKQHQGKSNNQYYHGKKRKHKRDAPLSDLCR
T1 sequence (Q5XG87 whole entry): as the sequence (Q5XG87 whole entry, the tested form may be a part) above
T2 sequence (Q8NDF8 1-698 isoform Q8NDF8-5): as the sequence (Q8NDF8 1-698 isoform Q8NDF8-5) above

SMILES | IC50 (HBV; read-out: IC50 HBsAg) | activity against hepatitis C virus (HCV) (hepatitis C virus (HCV)) | 1-by-1 validation of binding to prey fragments [1] | 1-by-1 validation of binding to prey fragments (PAPD7 prey fragment) | 1-by-1 validation of interaction with full length protein (PAPD7 var1 full length) | 1-by-1 validation of interaction with full length protein (PAPD5 var1 full length) | IC50 (HBV; read-out: IC50 HBeAg) | competition of free compound with chemical probe [2] | competition of free compound with chemical probe [3] | Confidence score (PAPD5 variant 1) | Confidence score (PAPD7) | Confidence score (PAPD5 variant 2)
COc1cccc(-c2ncc3c(n2)CCN(c2cc(F)c(F)c(OC)c2)C3)n1 [INACT654] | > 25000 nM | – | – | – | – | – | – | – | – | – | – | –
COCCCOc1cc2c(cc1Cl)-c1cc(=O)c(C(=O)O)cn1[C@H](C(C)C)C2 [MOL653] | 3 nM | inactive | specific binders | specific binders | confirmed at the lowest tested concentration | confirmed at the lowest tested concentration | 7 nM | competition could be observed | competition could be observed | – | – | –
COc1cc2c(cc1OCCOCCOCCOCCOCCOCCOc1c(OC)cc(Cc3cnc(N)nc3N)cc1OC)C[C@@H](C(C)(C)C)n1cc(C(=O)O)c(=O)cc1-2 [HBX129653] | 1180 nM | – | – | – | – | – | – | – | – | A | A | –
COc1cc(Cc2cnc(N)nc2N)cc(OC)c1OCCOCCOCCOCCOCCOCCOc1cc(N2CCc3nc(-c4ncccn4)ncc3[C@H]2C)cc(F)c1F [HBX129654] | 299 nM | – | – | – | – | – | – | – | – | – | A | A
COc1cc(N2CCc3nc(-c4ncccn4)ncc3[C@H]2C)cc(F)c1F [MOL654] | 3 nM | inactive | specific binders | specific binders | confirmed at the lowest tested concentration | confirmed at the lowest tested concentration | – | competition could be observed | competition could be observed | – | – | –
COCCCOc1cc2c(cc1OC)-c1cc(=O)c(C(=O)O)cn1[C@@H](C(C)C)C2 [INACT653] | – | – | – | – | – | – | – | less binding affinity | less binding affinity | – | – | –
